Test results reported in PubChem BioAssay AID256 (DTP/NCI, 2004).
“And” between values parts separate entries of the source, which are not always exact repeats. Identical values can stand only once. Inconclusive results and toxic doses are left out.

Test system: CD2F1 mice, L1210 leukemia ip, survival T/C
Experiment: NCI In Vivo Anticancer Drug Screen. Data for tumor model L1210 Leukemia (intraperitoneal) in CD2F1 (CDF1) mice
Details: higher = longer survival
Method in brief: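 Vehicle-treated tumor-bearing mice served as controls (C) for compound-treated mice (T). Reported figure is T divided by C.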

[1] = endpoint: mean survival time, dose: 6.25 mg/kg/injection, schedule: Q01DX009 (ip), vehicle: saline with Tween-80
[2] = endpoint: mean survival time, dose: 12.5 mg/kg/injection, schedule: Q01DX009 (ip), vehicle: saline with Tween-80
[3] = endpoint: mean survival time, dose: 25.0 mg/kg/injection, schedule: Q01DX009 (ip), vehicle: saline with Tween-80

NC(=O)c1cn(C2OC(CO)C(O)C2O)c2ncnc(N)c12 (stereo not drawn)
T/C (endpoint: mean survival time, dose: 0.06 mg/kg/injection, schedule: Q01DX009 (ip), vehicle: acid diluted with saline): 117 % of control | T/C (endpoint: mean survival time, dose: 0.06 mg/kg/injection, schedule: Q01DX009 (ip), vehicle: saline): 108 % of control | T/C (endpoint: mean survival time, dose: 0.08 mg/kg/injection, schedule: Q## X008 (ip), vehicle: carboxymethylcellulose (CMC)): 117 % of control | T/C (endpoint: mean survival time, dose: 0.13 mg/kg/injection, schedule: Q01DX009 (ip), vehicle: saline): 120 % of control and 121 % of control | T/C (endpoint: mean survival time, dose: 0.13 mg/kg/injection, schedule: Q03HX008 (ip), vehicle: saline): 124 % of control | T/C (endpoint: mean survival time, dose: 0.13 mg/kg/injection, schedule: Q03HX016 (ip), vehicle: saline): 123 % of control | T/C (endpoint: mean survival time, dose: 0.13 mg/kg/injection, schedule: Q03HX024 (ip), vehicle: saline): 119 % of control | T/C (endpoint: mean survival time, dose: 0.2 mg/kg/injection, schedule: Q01DX005 (ip), vehicle: saline): 115 % of control | T/C (endpoint: mean survival time, dose: 0.25 mg/kg/injection, schedule: Q01DX005 (ip), vehicle: saline + alcohol): 124 % of control | T/C (endpoint: mean survival time, dose: 0.31 mg/kg/injection, schedule: Q## X002 (ip), vehicle: carboxymethylcellulose (CMC)): 122 % of control | T/C (endpoint: mean survival time, dose: 0.31 mg/kg/injection, schedule: Q## X008 (ip), vehicle: carboxymethylcellulose (CMC)): 114 % of control | T/C (endpoint: mean survival time, dose: 0.5 mg/kg/injection, schedule: Q01DX009 (ip), vehicle: saline sonified): 123 % of control | T/C (endpoint: mean survival time, dose: 0.5 mg/kg/injection, schedule: Q03HX024 (ip), vehicle: saline): 95 % of control | T/C (endpoint: mean survival time, dose: 0.5 mg/kg/injection, schedule: Q04DX003 (ip), vehicle: saline): 122 % of control | T/C (endpoint: mean survival time, dose: 0.63 mg/kg/injection, schedule: Q01DX001 (ip), vehicle: carboxymethylcellulose (CMC)): 123 % of control | T/C (endpoint: mean survival time, dose: 0.63 mg/kg/injection, schedule: Q## X002 (ip), vehicle: carboxymethylcellulose (CMC)): 124 % of control | T/C (endpoint: mean survival time, dose: 0.63 mg/kg/injection, schedule: Q## X008 (ip), vehicle: carboxymethylcellulose (CMC)): 91 % of control | T/C (endpoint: mean survival time, dose: 1.0 mg/kg/injection, schedule: Q01DX001 (ip), vehicle: saline): 115 % of control and 119 % of control | T/C (endpoint: mean survival time, dose: 1.0 mg/kg/injection, schedule: Q01DX007 (ip), vehicle: saline): 119 % of control | T/C (endpoint: mean survival time, dose: 1.0 mg/kg/injection, schedule: Q01DX009 (ip), vehicle: saline sonified): 88 % of control and 95 % of control and 111 % of control | T/C (endpoint: mean survival time, dose: 1.0 mg/kg/injection, schedule: Q01DX009 (oral), vehicle: saline): 93 % of control | T/C (endpoint: mean survival time, dose: 1.0 mg/kg/injection, schedule: Q04DX003 (ip), vehicle: saline): 122 % of control | T/C (endpoint: mean survival time, dose: 1.0 mg/kg/injection, schedule: Q08DX002 (ip), vehicle: saline): 117 % of control | T/C (endpoint: mean survival time, dose: 1.25 mg/kg/injection, schedule: Q01DX001 (ip), vehicle: carboxymethylcellulose (CMC)): 121 % of control | T/C (endpoint: mean survival time, dose: 1.25 mg/kg/injection, schedule: Q## X002 (ip), vehicle: carboxymethylcellulose (CMC)): 114 % of control | T/C (endpoint: mean survival time, dose: 1.5 mg/kg/injection, schedule: Q01DX009 (ip), vehicle: saline with Tween-80): 109 % of control | T/C (endpoint: mean survival time, dose: 2.0 mg/kg/injection, schedule: Q01DX001 (ip), vehicle: saline): 117 % of control and 112 % of control | T/C (endpoint: mean survival time, dose: 2.0 mg/kg/injection, schedule: Q01DX001 (oral), vehicle: saline): 107 % of control | T/C (endpoint: mean survival time, dose: 2.0 mg/kg/injection, schedule: Q01DX009 (ip), vehicle: acid diluted with saline): 111 % of control | T/C (endpoint: mean survival time, dose: 2.0 mg/kg/injection, schedule: Q01DX009 (ip), vehicle: saline sonified): 88 % of control and 93 % of control | T/C (endpoint: mean survival time, dose: 2.0 mg/kg/injection, schedule: Q01DX009 (oral), vehicle: saline): 97 % of control | T/C (endpoint: mean survival time, dose: 2.0 mg/kg/injection, schedule: Q08DX002 (ip), vehicle: saline): 119 % of control | T/C (endpoint: mean survival time, dose: 2.5 mg/kg/injection, schedule: Q01DX001 (ip), vehicle: carboxymethylcellulose (CMC)): 178 % of control | T/C (endpoint: mean survival time, dose: 4.0 mg/kg/injection, schedule: Q01DX001 (ip), vehicle: saline): 121 % of control and 124 % of control | T/C (endpoint: mean survival time, dose: 4.0 mg/kg/injection, schedule: Q01DX001 (oral), vehicle: saline): 112 % of control | T/C (endpoint: mean survival time, dose: 4.0 mg/kg/injection, schedule: Q01DX005 (ip), vehicle: saline + alcohol): 93 % of control | T/C (endpoint: mean survival time, dose: 4.0 mg/kg/injection, schedule: Q01DX009 (oral), vehicle: saline): 98 % of control | T/C (endpoint: mean survival time, dose: 4.0 mg/kg/injection, schedule: Q04DX003 (ip), vehicle: saline): 101 % of control | T/C (endpoint: mean survival time, dose: 4.0 mg/kg/injection, schedule: Q08DX002 (ip), vehicle: saline): 120 % of control | T/C (endpoint: mean survival time, dose: 8.0 mg/kg/injection, schedule: Q01DX001 (ip), vehicle: saline): 113 % of control | T/C (endpoint: mean survival time, dose: 8.0 mg/kg/injection, schedule: Q01DX001 (oral), vehicle: saline): 101 % of control | T/C (endpoint: mean survival time, dose: 8.0 mg/kg/injection, schedule: Q08DX002 (ip), vehicle: saline): 88 % of control | T/C (endpoint: mean survival time, dose: 16.0 mg/kg/injection, schedule: Q01DX001 (oral), vehicle: saline): 107 % of control | T/C (endpoint: mean survival time, dose: 125.0 micrograms/kg/injection, schedule: Q01DX006 (iv), vehicle: saline): 106 % of control | T/C (endpoint: mean survival time, dose: 125.0 micrograms/kg/injection, schedule: Q01DX Z (im), vehicle: saline): 100 % of control | T/C (endpoint: mean survival time, dose: 250.0 micrograms/kg/injection, schedule: Q01DX006 (iv), vehicle: saline): 101 % of control | T/C (endpoint: mean survival time, dose: 250.0 micrograms/kg/injection, schedule: Q01DX Z (im), vehicle: saline): 101 % of control | T/C (endpoint: mean survival time, dose: 500.0 micrograms/kg/injection, schedule: Q01DX006 (iv), vehicle: saline): 106 % of control | T/C (endpoint: mean survival time, dose: 500.0 micrograms/kg/injection, schedule: Q01DX Z (im), vehicle: saline): 107 % of control | T/C (endpoint: mean survival time, dose: 1000.0 micrograms/kg/injection, schedule: Q01DX006 (iv), vehicle: saline): 109 % of control | T/C (endpoint: mean survival time, dose: 1000.0 micrograms/kg/injection, schedule: Q01DX Z (im), vehicle: saline): 103 % of control | T/C (endpoint: median survival time, dose: 2.0 mg/kg/injection, schedule: Q01DX009 (ip), vehicle: saline): 112 % of control

CCCCN(C)C(=O)Oc1cccc(NC(=O)OC)c1
T/C (endpoint: mean survival time, dose: 100.0 mg/kg/injection, schedule: Q01DX009 (ip), vehicle: saline with Tween-80): 94 % of control | T/C (endpoint: mean survival time, dose: 200.0 mg/kg/injection, schedule: Q01DX009 (ip), vehicle: saline with Tween-80): 100 % of control

CN(C)CCCN=Cc1cc(Cl)ccc1O.CN(C)CCCN=Cc1cc(Cl)ccc1O.[Ni+2]
T/C [1]: 93 % of control | T/C [2]: 93 % of control | T/C [3]: 100 % of control

C[N+](C)(C)c1cccc(S)c1
T/C (endpoint: mean survival time, dose: 100.0 mg/kg/injection, schedule: Q04DX002 (ip), vehicle: saline with Tween-80): 104 % of control | T/C (endpoint: mean survival time, dose: 200.0 mg/kg/injection, schedule: Q04DX002 (ip), vehicle: saline with Tween-80): 112 % of control | T/C (endpoint: mean survival time, dose: 400.0 mg/kg/injection, schedule: Q04DX002 (ip), vehicle: saline with Tween-80): 100 % of control

N#CCCCN1CCCCC1
T/C [1]: 103 % of control | T/C (endpoint: mean survival time, dose: 6.25 mg/kg/injection, schedule: Q04DX003 (ip), vehicle: saline): 89 % of control | T/C [2]: 97 % of control | T/C (endpoint: mean survival time, dose: 12.5 mg/kg/injection, schedule: Q04DX003 (ip), vehicle: saline): 98 % of control | T/C [3]: 100 % of control | T/C (endpoint: mean survival time, dose: 25.0 mg/kg/injection, schedule: Q04DX003 (ip), vehicle: saline): 93 % of control

Clc1ccccc1N=Cc1ccc2c(c1)OCO2
T/C (endpoint: mean survival time, dose: 100.0 mg/kg/injection, schedule: Q01DX009 (ip), vehicle: Klucel (hydroxypropylcellulose) (HPC)): 105 % of control | T/C (endpoint: mean survival time, dose: 100.0 mg/kg/injection, schedule: Q04DX003 (ip), vehicle: alcohol): 103 % of control | T/C (endpoint: mean survival time, dose: 200.0 mg/kg/injection, schedule: Q01DX009 (ip), vehicle: Klucel (hydroxypropylcellulose) (HPC)): 100 % of control | T/C (endpoint: mean survival time, dose: 200.0 mg/kg/injection, schedule: Q04DX003 (ip), vehicle: alcohol): 109 % of control | T/C (endpoint: mean survival time, dose: 400.0 mg/kg/injection, schedule: Q01DX009 (ip), vehicle: Klucel (hydroxypropylcellulose) (HPC)): 100 % of control | T/C (endpoint: mean survival time, dose: 400.0 mg/kg/injection, schedule: Q04DX003 (ip), vehicle: alcohol): 105 % of control

COC(=O)c1cc(OC)cc(OC)c1
T/C (endpoint: mean survival time, dose: 100.0 mg/kg/injection, schedule: Q01DX009 (ip), vehicle: other): 96 % of control | T/C (endpoint: mean survival time, dose: 200.0 mg/kg/injection, schedule: Q01DX009 (ip), vehicle: other): 110 % of control | T/C (endpoint: mean survival time, dose: 400.0 mg/kg/injection, schedule: Q01DX009 (ip), vehicle: other): 91 % of control

O=C(CCl)NCc1cn(C2CC(O)C(CO)O2)c(=O)[nH]c1=O (stereo not drawn)
T/C (endpoint: mean survival time, dose: 5.6 mg/kg/injection, schedule: Q01DX005 (ip), vehicle: water): 111 % of control | T/C (endpoint: mean survival time, dose: 11.25 mg/kg/injection, schedule: Q01DX005 (ip), vehicle: water): 100 % of control | T/C (endpoint: mean survival time, dose: 22.5 mg/kg/injection, schedule: Q01DX005 (ip), vehicle: water): 103 % of control | T/C (endpoint: mean survival time, dose: 45.0 mg/kg/injection, schedule: Q01DX005 (ip), vehicle: water): 95 % of control | T/C (endpoint: mean survival time, dose: 90.0 mg/kg/injection, schedule: Q01DX005 (ip), vehicle: water): 103 % of control

CCOC(=O)NC(S(=O)(=O)O)S(=O)(=O)O.[Tl]
T/C (endpoint: mean survival time, dose: 6.25 mg/kg/injection, schedule: Q01DX001 (ip), vehicle: saline with Tween-80): 98 % of control | T/C (endpoint: mean survival time, dose: 12.5 mg/kg/injection, schedule: Q01DX001 (ip), vehicle: saline with Tween-80): 90 % of control | T/C (endpoint: mean survival time, dose: 25.0 mg/kg/injection, schedule: Q01DX001 (ip), vehicle: saline with Tween-80): 98 % of control
